Structures can show the parent of a compound that is named as a salt.
Columns and labels:
[1] = I.P. symptomatology: highest tolerated dose and median lethal dose (Table IV); type: in vivo
[2] = in vivo; details: po
[3] = Mouse tail stimulation (MTS) (Table IV); type: in vivo; design: unit not given here; details: S.C.
[4] = system: Morphine Analgesia; type: in vivo, rat; details: for narcotic antagonist potency relative to pentazocine: compared with pentazocine, Table II
[5] = Analgesic activity summarized over hot plate and writhing methods (Table I); details: for analgesic activity, ranking among tested compounds / separation between effective dose and toxic or lethal doses: Table I; for separation between effective dose and toxic or lethal doses: therapeutic index
[6] = Narcotic antagonism (Table IV); type: in vivo; details: I.P.
[7] = Local anesthetic sciatic block (Table IV); type: in vivo; details: 1%
[8] = Writhing analgesia (Table I); type: in vivo; details: oral; vs pentazocine

For `Oc1ccc2c(c1)CCN(C[C@H]1C[C@@H]1c1ccccc1)CC2` (relative stereo) [Example 30, 7-Hydroxy-3(trans-2-phenylcyclopropylmethyl)-1,2,4,5-tetrahydro-3H,3-benzazepine], the LD50 ([1]; in vivo, ip, I.P.) was > 1000 mg/kg.

In the case of `CC1Cc2ccccc2CCN1` (single isomer, unassigned; (+)) [Example 49, (+)-2-Methyl-1,2,4,5-tetrahydro-3H,3-benzazepine hydrochloride], the “LD50 (median lethal dose)” value ([1]; I.P., hydrochloride) is reported as 200 mg/kg.

With `CC1Cc2ccccc2CCN1` (single isomer, unassigned; (-)) [Example 48, (-)-2-Methyl-1,2,4,5-tetrahydro-3H,3-benzazepine] the “LD50 (median lethal dose)” value ([1]; I.P.) was 60 mg/kg.

In the case of `CC1Cc2ccccc2CCN1C` (single isomer, unassigned; (-)) [Example 54, (-)-2,3-Dimethyl-1,2,4,5-tetrahydro-3H,3-benzazepine hydrochloride], the “LD50 (median lethal dose)” value ([1]; I.P., hydrochloride) is reported as 60 mg/kg.

`COc1ccc2c3c1O[C@H]1[C@@H](O)C=C[C@H]4[C@@H](C2)N(C)CC[C@@]341` [Codeine] showed an LD50 [2] of 540 mg/kg.

For `COc1ccc2c(c1)CCNCC2` [Example 1, 7-Methoxy-1,2,4,5-tetrahydro-3H,3-benzazepine], the “MTS (mouse tail stimulation)” value [3] was > 3.

For `CC(C)=CCN1CCc2ccc(O)cc2CC1` [Example 4, 3-(3,3-Dimethylallyl)-7-hydroxy-1,2,4,5-tetrahydro-3H,3-benzazepine], the “MTS (mouse tail stimulation)” value [3] was > 56 and the “narcotic antagonist potency relative to pentazocine” value [4] was “more potent antagonist than pentazocine”.

In the case of `CC(=O)Oc1ccc2c(c1)CCN(CC=C(C)C)CC2` [Example 5, 7-Acetoxy-3-(3,3-dimethylallyl)-1,2,4,5-tetrahydro-3H,3-benzazepine hydrochloride], the “MTS (mouse tail stimulation)” value [3] is reported as > 30.

With `C=CCN1CCc2ccc(OC)cc2CC1` [Example 14, 3-Allyl-7-methoxy-1,2,4,5-tetrahydro-3H,3-benzazepine] the “narcotic antagonist potency relative to pentazocine” value [4] was “about equipotent to pentazocine”.

With `COc1ccc2c(c1)CCN(C)CC2` [Example 18, 7-Methoxy-3-methyl-1,2,4,5-tetrahydro-3H,3-benzazepine] the oral analgesic activity [5] was “active by the oral route”.

In the case of `COc1ccc2c(c1)CCN(CCc1ccccc1)CC2` [Example 24, 7-Methoxy-3-phenethyl-1,2,4,5-tetrahydro-3H,3-benzazepine], the “MTS (mouse tail stimulation)” value [3] is reported as 5, the MTD ([1]; in vivo, ip, I.P. symptomatology, read-out: HTD (highest tolerated dose)) is reported as 30 mg/kg and the “Narcotic Antagonism” value [6] is reported as “Positive”. For the same molecule, the “narcotic antagonist potency relative to pentazocine” value [4] was “about equipotent to pentazocine”, the “analgesic activity, ranking among tested compounds” value [5] was “most active compounds” and the “separation between effective dose and toxic or lethal doses” value [5] was “greatest separation between effective dose and toxic or lethal doses”.

In the case of `Oc1ccc2c(c1)CCN(CCc1ccccc1)CC2` [Example 25, 7-Hydroxy-3-phenethyl-1,2,4,5-tetrahydro-3H,3-benzazepine], the “HNSD (Highest Non Symptomatic Dose)” value (IP (Intraperitoneal)) is reported as 55 mg/kg.

With `COc1ccc2c(c1)CCN(CC=Cc1ccccc1)CC2` [Example 28, 7-Methoxy-3-(3-phenylallyl)-1,2,4,5-tetrahydro-3H,3-benzazepine] the “MTS (mouse tail stimulation)” value [3] was 10, the “narcotic antagonist potency relative to pentazocine” value [4] was “about equipotent to pentazocine” and the oral analgesic activity [5] was “active by the oral route”.

For `COc1ccc2c(c1)CCN(CCN1CCN(c3ccccc3)CC1)CC2` [Example 31, 7-Methoxy-3-[2-(4-phenyl-1-piperazinyl)ethyl]-1,2,4,5-tetrahydro-3H,3-benzazepine], the “MTS (mouse tail stimulation)” value [3] was 20, the “analgesic activity, ranking among tested compounds” value [5] was “most active compounds” and the “separation between effective dose and toxic or lethal doses” value [5] was “greatest separation between effective dose and toxic or lethal doses”.

In the case of `CC(C)=CCN1CCc2ccc(O)cc2CC1C` (stereo not shown) [Example 34, 3-(3,3-Dimethylallyl)-8-hydroxy-2-methyl-1,2,4,5-tetrahydro-3H,3-benzazepine hydrochloride], the “MTS (mouse tail stimulation)” value [3] is reported as > 40.

For `COc1ccc2c(c1)CC(C)N(CCc1ccccc1)CC2` (stereo not shown) [Example 36, 8-Methoxy-2-methyl-3-phenethyl-1,2,4,5-tetrahydro-3H,3-benzazepine hydrochloride], the “MTS (mouse tail stimulation)” value [3] was 10 and the “Local Anesthetic Sciatic Block” value [7] was “Insoluable”.

In the case of `c1ccc2c(c1)CCN(CC1CC1)CC2` [Example 37, 3-Cyclopropylmethyl-1,2,4,5-tetrahydro-3H,3-benzazepine hydrochloride], the “MTS (mouse tail stimulation)” value [3] is reported as 10, the “writhing activity relative to pentazocine” value [8] is reported as “approximately twice as active as pentazocine” and the oral analgesic activity [5] is reported as “active by the oral route”.

In the case of `C=CCN1CCc2ccc(OC)cc2CC1C` (stereo not shown) [Example 38, 3-Allyl-8-methoxy-2-methyl-1,2,4,5-tetrahydro-3H,3-benzazepine hydrochloride], the “MTS (mouse tail stimulation)” value [3] is reported as > 10.

In the case of `CC1Cc2cc(O)ccc2CCN1CC1CC1` (stereo not shown) [Example 41, 3-Cyclopropylmethyl-8-hydroxy-2-methyl-1,2,4,5-tetrahydro-3H,3-benzezepine hydrochloride], the “MTS (mouse tail stimulation)” value [3] is reported as > 30.

With `C=CCN1CC[C@]23c4c5ccc(O)c4O[C@H]2[C@@H](O)C=C[C@H]3[C@H]1C5` [Nalorphine, reference compound] the “Antagonism of Morphine Analgesia, times more active than compounds listed above” value ([4]; rat, in vivo, sc) was 20-100.

For `CC(C)=CCN1CCC2(C)c3cc(O)ccc3CC1C2C` (stereo not shown) [Pentazocine, reference compound], the LDSO (IP) was > 500 mg/kg.

— patent US4233217A, “Substituted 1,2,4,5-tetrahydro-3H, 3 benzazepines” (priority 1979, dated 1980)
